For the test, the target named is Apolipoprotein L1 (Homo sapiens, UniProt O14791). Briefly: Inhibition of APOL1 G1 variant in human HEK293-T-REx cells measured by Thallium assay. It is filed as cell-based.

For `CCC(O)CNC(=O)O[C@H]1C[C@H](c2c(-c3ccc(F)cc3)[nH]c3c(F)cc(F)cc32)C1` (some centres undefined), the IC50 (in general, the concentration at which inhibition is half-maximal) was more than 1 µM.

Regarding `O=C(NC1CCOC1)O[C@H]1C[C@H](c2c(-c3ccc(F)cc3)[nH]c3c(F)cc(F)cc32)C1` (some centres undefined), the IC50 was more than 1 µM. On to `O=C(NC1CCNC1=O)N[C@H]1C[C@H](c2c(-c3ccc(F)cc3)[nH]c3c(F)cc(F)cc32)C1` (some centres undefined), for which the IC50 is more than 1 µM. Then `CC(C)C[C@@H](CO)NC(=O)C1CC(Cc2c(-c3ccc(F)cc3)[nH]c3c(F)cc(F)cc23)C1` (some centres undefined), with more than 1 µM; and `O=C(N[C@@H](CO)C(F)F)[C@H]1C[C@H](c2c(-c3ccc(F)cc3)[nH]c3c(F)cc(F)cc32)C1`, with less than 0.25 µM; and `O=C(NCC1(O)CCC1)C1CC(Cc2c(-c3ccc(F)cc3)[nH]c3c(F)cc(F)cc23)C1` (centres undefined), with more than 1 µM.

For `O=C(NCc1ccco1)O[C@H]1C[C@H](c2c(-c3ccc(F)cc3)[nH]c3c(F)cc(F)cc32)C1`, the IC50 is more than 1 µM. `CC(C)(O)CNC(=O)C1CC(Cc2c(-c3ccc(F)cc3)[nH]c3c(F)cc(F)cc23)C1` (centres undefined) yielded an IC50 of more than 1 µM. `O=C(NCC(O)CO)O[C@H]1C[C@H](c2c(-c3ccc(F)cc3)[nH]c3c(F)cc(F)cc32)C1` (some centres undefined) displayed an IC50 of more than 1 µM.

The compound `C[C@@H](CO)NC(=O)NC[C@H]1C[C@H](c2c(-c3ccc(F)cc3)[nH]c3c(F)cc(F)cc32)C1` yielded an IC50 of more than 1 µM.

`CC[C@@H](CO)NC(=O)[C@H]1C[C@@H](c2c(-c3ccc(F)cc3)[nH]c3c(F)cc(F)cc32)C1` yielded an IC50 of more than 1 µM. Regarding `C[C@@H](NCC1CC(c2c(-c3ccc(F)cc3)[nH]c3c(F)cc(F)cc23)C1)C(=O)N(C)C` (some centres undefined), the IC50 is more than 1 µM. The figure for `NC(=O)CNC(=O)C1CC(c2c(-c3ccc(F)cc3)[nH]c3c(F)cc(C(F)(F)F)cc23)C1` (centres undefined) is less than 0.25 µM; for `C[C@@H](O)CNC(=O)N(C)CC1CC(c2c(-c3ccc(F)cc3)[nH]c3c(F)cc(F)cc23)C1` (some centres undefined) it is more than 1 µM.

For the compound `CC1(C(=O)NC2(CO)CC2)CC(c2c(-c3ccc(F)cc3)[nH]c3c(F)cc(F)cc23)C1` (centres undefined), the IC50 is less than 0.25 µM.

`CC(C)NC(=O)CN[C@H]1C[C@H](c2c(-c3ccc(F)cc3)[nH]c3c(F)cc(F)cc32)C1` registered an IC50 of more than 1 µM. The figure for `CC(C)(NCC1CC(c2c(-c3ccc(F)cc3)[nH]c3c(F)cc(F)cc23)C1)C(N)=O` (centres undefined) is more than 1 µM; for `CNC(=O)N(C)CC1CC(c2c(-c3ccc(F)cc3)[nH]c3c(F)cc(F)cc23)C1` (centres undefined) it is more than 1 µM; for `C[C@H](NCC1CC(c2c(-c3ccc(F)cc3)[nH]c3c(F)cc(F)cc23)C1)C(N)=O` (some centres undefined) it is more than 1 µM. Compound `O=C(NCC1CC1)O[C@H]1C[C@H](c2c(-c3ccc(F)cc3)[nH]c3c(F)cc(F)cc32)C1` came in with an IC50 of more than 1 µM. Then `O=C(NCC(F)(F)F)[C@H]1C[C@@H](c2c(-c3ccc(F)cc3)[nH]c3c(F)cc(F)cc32)C1`, with 0.00025 µM; and `O=C(NC1(CO)CC1)[C@H]1C[C@@H](c2c(-c3ccc(F)cc3)[nH]c3c(F)cc(F)cc32)C1`, with more than 1 µM; and `O=C1CN(C(=O)[C@H]2C[C@@H](c3c(-c4ccc(F)cc4)[nH]c4c(F)cc(F)cc43)C2)CCN1`, with more than 1 µM.

Compound `O=C(NC(CO)CO)N[C@H]1C[C@H](c2c(-c3ccc(F)cc3)[nH]c3c(F)cc(F)cc32)C1` came in with an IC50 of more than 1 µM.

Compound `O=C(N[C@H]1CCNC1=O)O[C@H]1C[C@H](c2c(-c3ccc(F)cc3)[nH]c3c(F)cc(F)cc32)C1` (relative stereo) displayed a concentration for half-maximal inhibition (IC50) of more than 1 µM. Turning to `O=C(NCCn1cncn1)[C@H]1C[C@@H](c2c(-c3ccc(F)cc3)[nH]c3c(F)cc(F)cc32)C1`, the IC50 was more than 1 µM. Then `C[C@H](NC(=O)C1CC(Cc2c(-c3ccc(F)cc3)[nH]c3c(F)cc(F)cc23)C1)C(C)(C)O` (some centres undefined), with more than 1 µM; and `O=C(CC1CC(c2c(-c3ccc(F)cc3)[nH]c3c(F)cc(F)cc23)C1)N[C@H](CO)C(F)(F)F` (some centres undefined), with more than 1 µM. The figure for `O=C(NC[C@@H](O)C(F)(F)F)NC[C@H]1C[C@H](c2c(-c3ccc(F)cc3)[nH]c3c(F)cc(F)cc32)C1` (relative stereo) is more than 1 µM.

These data come from ChEMBL document CHEMBL5052856, “Inhibitors of apol1 and methods of using same” (2021).
